Measured values as given in patent publication US20240393292A1, “ALLERGY ANTIGEN AND EPITOPE THEREOF” (HOYU CO., LTD., priority 2019, published 2024).

System: IgE antibodies from patients
Assay: Wheat epitope mapping (2): overlapping 10-amino-acid peptide fragments shifted by one amino acid;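 on Rank of partial sequence as epitope binding to IgE antibody: key = sequence deemed particularly important within the common 15-residue sequence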;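 on epitope sequence binding to IgE antibody, rank (Key/Preferably/More preferably): key of grades: preferably = shorter partial sequence still acting as epitope; more preferably = sequence improving IgE binding; key = particularly important sequence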
Type: binding, human
Conditions: for Epitope sequence binding to IgE antibody, rank of the sequence (Key/Preferably/More preferably/Further preferably): serum of patient P50 (child, general immediate type allergy to wheat)
Procedure, shortened: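 Residual binding was banded as <30% none, 30–<50% poor, 50–<70% somewhat poor and ≥70% retained, relative to the parent overlapping sequence set to 100%. Values were chemiluminescent IgE signals from patient sera after subtracting secondary-antibody-only controls. The peptides were spot-synthesised 10-mers shifted by one amino acid.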

[1] = serum of patient G6 (adult, general immediate type allergy to wheat)
[2] = serum of patient P17 (WDEIA), sequence without X
[3] = serum of patient P28 (WDEIA), sequence without X
[4] = serum of patient G7 (adult, general immediate type allergy to wheat), sequence without X
[5] = serum of patient P34 (WDEIA), sequence without X
[6] = serum of patient P3 (WDEIA), sequence without X
[7] = serum of patient G6 (adult, general immediate type allergy to wheat), sequence without X

## 2245 (SRLLRGIR; REGION 1..8: note = epitope) [compound 2245]
Sequence without X
  Epitope sequence binding to IgE antibody, rank of the sequence (Key/Preferably/More preferably/Further preferably): Preferably

## 2371 (HDIDRCAY; REGION 1..8: note = epitope) [compound 2371]
Serum of patient P26 (WDEIA), sequence without X
  Epitope sequence binding to IgE antibody, rank of the sequence (Key/Preferably/More preferably): Key

## 2509 (QVSF; REGION 1..4: note = epitope) [compound 2509]
Serum of patient P29 (WDEIA), partial sequence
  Epitope sequence binding to IgE antibody, rank of the sequence: Key

## 1617 (VPFVPISG; REGION 1..8: note = epitope) [compound 1617]
Serum of patient P20 (WDEIA), sequence without X
  Rank of partial sequence as epitope binding to IgE antibody: Preferably

## 2555 (QSTYQLVQQL; REGION 1..10: note = epitope) [compound 2555]
Serum of patient P20 (WDEIA), partial sequence
  Epitope sequence binding to IgE antibody, rank of the sequence: Key

## 1830 (LPKFL; REGION 1..5: note = epitope) [compound 1830]
[1]
  epitope sequence binding to IgE antibody, rank (Key/Preferably/More preferably): Key

## 2689 (YKGPTL; REGION 1..6: note = epitope) [compound 2689]
Serum of patient P30 (WDEIA), partial sequence
  Epitope sequence binding to IgE antibody, rank of the sequence: Key

## 1667 (NPDKVP; REGION 1..6: note = epitope) [compound 1667]
Serum of patient G3 (adult, general immediate type allergy to wheat), sequence without X
  Rank of partial sequence as epitope binding to IgE antibody: Key

## 2406 (TEIVL; REGION 1..5: note = epitope) [compound 2406]
Sequence without X
  Epitope sequence binding to IgE antibody, rank of the sequence (Key/Preferably/More preferably/Further preferably): Preferably

## 2621 (LLAS; REGION 1..4: note = epitope) [compound 2621]
Serum of patient G2 (adult, general immediate type allergy to wheat), partial sequence
  Epitope sequence binding to IgE antibody, rank of the sequence: Key

## 1248 (PQQPP; REGION 1..5: note = epitope) [compound 1248]
Serum of patient P32 (WDEIA), sequence without X
  Epitope sequence binding to IgE antibody, rank of the sequence: Key

## 1231 (PQQPP; REGION 1..5: note = epitope) [compound 1231]
Serum of patient P13 (WDEIA), sequence without X
  Epitope sequence binding to IgE antibody, rank of the sequence: Key

## 1659 (YNPDKVPF; REGION 1..8: note = epitope) [compound 1659]
Serum of patient G1 (adult, general immediate type allergy to wheat), sequence without X
  Rank of partial sequence as epitope binding to IgE antibody: Preferably

## 2289 (GGIDK; REGION 1..5: note = epitope) [compound 2289]
Serum of patient P33 (WDEIA), sequence without X
  Epitope sequence binding to IgE antibody, rank of the sequence (Key/Preferably/More preferably): Key

## 2547 (QSTYQLVQQL; REGION 1..10: note = epitope) [compound 2547]
Serum of patient P2 (WDEIA), partial sequence
  Epitope sequence binding to IgE antibody, rank of the sequence: Preferably

## 1540 (VQQQQFLG; REGION 1..8: note = epitope) [compound 1540]
[2]
  Rank of partial sequence as epitope binding to IgE antibody: Preferably

## 1884 (TVRTLQRT; REGION 1..8: note = epitope) [compound 1884]
Serum of patient P35 (WDEIA)
  epitope sequence binding to IgE antibody, rank (Key/Preferably/More preferably): Preferably

## 1313 (NVEN; REGION 1..4: note = epitope) [compound 1313]
Serum of patient P12 (WDEIA), sequence without X
  Epitope sequence binding to IgE antibody, rank of the sequence: Key

## 2695 (YKGPTL; REGION 1..6: note = epitope) [compound 2695]
Serum of patient P36 (WDEIA), partial sequence
  Epitope sequence binding to IgE antibody, rank of the sequence: Key

## 2379 (HDIDRCAY; REGION 1..8: note = epitope) [compound 2379]
[3]
  Epitope sequence binding to IgE antibody, rank of the sequence (Key/Preferably/More preferably): Key

## 2652 (KEAAEM; REGION 1..6: note = epitope) [compound 2652]
Serum of patient P31 (WDEIA), partial sequence
  Epitope sequence binding to IgE antibody, rank of the sequence: Preferably

## 2718 (GIGTVPVGRV; REGION 1..10: note = epitope) [compound 2718]
Serum of patient P18 (WDEIA), partial sequence
  Epitope sequence binding to IgE antibody, rank of the sequence: Key

## 1357 (NVEN; REGION 1..4: note = epitope) [compound 1357]
Serum of patient P36 (WDEIA), sequence without X
  Epitope sequence binding to IgE antibody, rank of the sequence: Key

## 1693 (KEAANFTS; REGION 1..8: note = epitope) [compound 1693]
Serum of patient P19 (WDEIA), sequence without X
  Rank of partial sequence as epitope binding to IgE antibody: Preferably

## 1670 (YNPDKVPFV; REGION 1..9: note = epitope) [compound 1670]
Serum of patient G4 (adult, general immediate type allergy to wheat), sequence without X
  Rank of partial sequence as epitope binding to IgE antibody: Preferably

## 2487 (KAWSGK; REGION 1..6: note = epitope) [compound 2487]
[4]
  Epitope sequence binding to IgE antibody, rank of the sequence (Key/Preferably/More preferably): More preferably

## 1483 (YLQPQQPIS; REGION 1..9: note = epitope) [compound 1483]
[5]
  Rank of partial sequence as epitope binding to IgE antibody: Preferably

## 1916 (QQQQFPGQQQ; REGION 1..10: note = epitope) [compound 1916]
Serum of patient P9 (WDEIA)
  epitope sequence binding to IgE antibody, rank (Key/Preferably/More preferably): Key

## 1305 (NRRALR; REGION 1..6: note = epitope) [compound 1305]
[6]
  Epitope sequence binding to IgE antibody, rank of the sequence: Key

## 2731 (YKIGGI; REGION 1..6: note = epitope) [compound 2731]
Serum of patient P28 (WDEIA), partial sequence
  Epitope sequence binding to IgE antibody, rank of the sequence: Key

## 1919 (VPLVQQQ; REGION 1..7: note = epitope) [compound 1919]
Serum of patient P10 (WDEIA)
  epitope sequence binding to IgE antibody, rank (Key/Preferably/More preferably): Key

## 1207 (FPPQQ; REGION 1..5: note = epitope) [compound 1207]
[5]
  Epitope sequence binding to IgE antibody, rank of the sequence: Key

## 2269 (LGGIDK; REGION 1..6: note = epitope) [compound 2269]
Serum of patient P7 (WDEIA), sequence without X
  Epitope sequence binding to IgE antibody, rank of the sequence (Key/Preferably/More preferably): Key

## 1699 (EAANFT; REGION 1..6: note = epitope) [compound 1699]
Serum of patient P21 (WDEIA), sequence without X
  Rank of partial sequence as epitope binding to IgE antibody: Preferably

## 1816 (LEALPKFL; REGION 1..8: note = epitope) [compound 1816]
Serum of patient P30 (WDEIA)
  epitope sequence binding to IgE antibody, rank (Key/Preferably/More preferably): Key

## 1949 (VPLVQQ; REGION 1..6: note = epitope) [compound 1949]
Serum of patient P24 (WDEIA)
  epitope sequence binding to IgE antibody, rank (Key/Preferably/More preferably): Key

## 2563 (QLVQQLCC; REGION 1..8: note = epitope) [compound 2563]
Serum of patient P24 (WDEIA), partial sequence
  Epitope sequence binding to IgE antibody, rank of the sequence: Preferably

## 1239 (QQQPIQQQP; REGION 1..9: note = epitope) [compound 1239]
Serum of patient P24 (WDEIA), sequence without X
  Epitope sequence binding to IgE antibody, rank of the sequence: Preferably

## 2587 (QLVQQLCC; REGION 1..8: note = epitope) [compound 2587]
Serum of patient P32 (WDEIA), partial sequence
  Epitope sequence binding to IgE antibody, rank of the sequence: Preferably

## 1472 (YLQPQQPIS; REGION 1..9: note = epitope) [compound 1472]
Serum of patient P27 (WDEIA), sequence without X
  Rank of partial sequence as epitope binding to IgE antibody: Preferably

## 1658 (KVPFVPISG; REGION 1..9: note = epitope) [compound 1658]
Serum of patient P54 (child, general immediate type allergy to wheat), sequence without X
  Rank of partial sequence as epitope binding to IgE antibody: Key

## 2263 (SRLLR; REGION 1..5: note = epitope) [compound 2263]
[7]
  Epitope sequence binding to IgE antibody, rank of the sequence (Key/Preferably/More preferably): Key

## 1428 (YLQPQQPIS; REGION 1..9: note = epitope) [compound 1428]
Serum of patient P14 (WDEIA), sequence without X
  Rank of partial sequence as epitope binding to IgE antibody: Preferably

## 1416 (YLQPQQPIS; REGION 1..9: note = epitope) [compound 1416]
Serum of patient P8 (WDEIA), sequence without X
  Epitope sequence binding to IgE antibody, rank of the sequence: Key

## 1890 (RTLQ; REGION 1..4: note = epitope) [compound 1890]
[1]
  epitope sequence binding to IgE antibody, rank (Key/Preferably/More preferably): Key

## 1681 (DKVPF; REGION 1..5: note = epitope) [compound 1681]
[7]
  Rank of partial sequence as epitope binding to IgE antibody: Preferably

## 1946 (FPGQ; REGION 1..4: note = epitope) [compound 1946]
Serum of patient P22 (WDEIA)
  epitope sequence binding to IgE antibody, rank (Key/Preferably/More preferably): Key

## 1221 (PIQQQPQPF; REGION 1..9: note = epitope) [compound 1221]
Serum of patient P10 (WDEIA), sequence without X
  Epitope sequence binding to IgE antibody, rank of the sequence: Preferably

## 1200 (QQFPGQQQQ; REGION 1..9: note = epitope) [compound 1200]
[3]
  Epitope sequence binding to IgE antibody, rank of the sequence: Key

## 2648 (NKRSFK; REGION 1..6: note = epitope) [compound 2648]
Serum of patient P26 (WDEIA), partial sequence
  Epitope sequence binding to IgE antibody, rank of the sequence: Key

## 1484 (YLQPQQP; REGION 1..7: note = epitope) [compound 1484]
[5]
  Rank of partial sequence as epitope binding to IgE antibody: Key

## 2710 (YKIGG; REGION 1..5: note = epitope) [compound 2710]
Serum of patient P16 (WDEIA), partial sequence
  Epitope sequence binding to IgE antibody, rank of the sequence: Key

## 1407 (YLQPQQPISQ; REGION 1..10: note = epitope) [compound 1407]
[6]
  Epitope sequence binding to IgE antibody, rank of the sequence: Preferably

## 1967 (VPLVQQQ; REGION 1..7: note = epitope) [compound 1967]
Serum of patient P34 (WDEIA)
  epitope sequence binding to IgE antibody, rank (Key/Preferably/More preferably): Key

## 1615 (YNPD; REGION 1..4: note = epitope) [compound 1615]
[2]
  Rank of partial sequence as epitope binding to IgE antibody: Key

## 1244 (PIQQQP; REGION 1..6: note = epitope) [compound 1244]
Serum of patient P31 (WDEIA), sequence without X
  Epitope sequence binding to IgE antibody, rank of the sequence: Key

## 1565 (QQQQFLGQ; REGION 1..8: note = epitope) [compound 1565]
[4]
  Rank of partial sequence as epitope binding to IgE antibody: Key
